Source: PubChem BioAssay AID330 (DTP/NCI, 2004)
Where “and” joins values, the source holds several entries; their conditions need not be identical. Equal values may be shown once. Toxic doses and inconclusive results are not listed. Rule for the calls: active = survival T/C of 150% or more; inactive = T/C below 125% in these data.

System: P388 leukemia ip, CD2F1 mice, survival T/C
Assay: NCI In Vivo Anticancer Drug Screen. Data for tumor model P388 Leukemia (intraperitoneal) in CD2F1 (CDF1) mice
Conditions: endpoint: median survival time, higher = longer survival
Method in brief: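 Mice carrying the transplanted tumor received test compound or vehicle. Survival was recorded in each group, and the value is the treated-group measurement divided by that of the vehicle-treated control group.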

[1] = dose: 100.0 mg/kg/injection, schedule: Q04DX003 (ip), vehicle: saline with Tween-80
[2] = dose: 200.0 mg/kg/injection, schedule: Q04DX003 (ip), vehicle: saline with Tween-80
[3] = dose: 400.0 mg/kg/injection, schedule: Q04DX003 (ip), vehicle: saline with Tween-80
[4] = dose: 100.0 mg/kg/injection, schedule: Q01DX001 (ip), vehicle: saline with Tween-80
[5] = dose: 60.0 mg/kg/injection, schedule: Q01DX005 (ip), vehicle: saline with Tween-80
[6] = dose: 120.0 mg/kg/injection, schedule: Q01DX005 (ip), vehicle: saline with Tween-80
[7] = dose: 240.0 mg/kg/injection, schedule: Q01DX005 (ip), vehicle: saline with Tween-80
[8] = dose: 50.0 mg/kg/injection, schedule: Q01DX009 (ip), vehicle: saline
[9] = dose: 100.0 mg/kg/injection, schedule: Q01DX009 (ip), vehicle: saline

Measured: T/C

CC(=O)[C@H]1CC[C@H]2[C@@H]3CCC4=CC(=O)[C@H](C)C[C@]4(C)[C@H]3C(=O)C[C@]12C
inactive: [1] 100 % of control | [2] 95 % of control | [3] 95 % of control

O=NNc1ncc([N+](=O)[O-])s1
inactive: dose: 3.12 mg/kg/injection, schedule: Q01DX009 (ip), vehicle: water 103 % of control | dose: 6.25 mg/kg/injection, schedule: Q01DX009 (ip), vehicle: water 97 % of control | dose: 12.5 mg/kg/injection, schedule: Q01DX009 (ip), vehicle: water 94 % of control | dose: 25.0 mg/kg/injection, schedule: Q01DX009 (ip), vehicle: water 100 % of control and 96 % of control | dose: 50.0 mg/kg/injection, schedule: Q01DX009 (ip), vehicle: water 100 % of control and 97 % of control | dose: 100.0 mg/kg/injection, schedule: Q01DX009 (ip), vehicle: water 101 % of control | dose: 200.0 mg/kg/injection, schedule: Q01DX009 (ip), vehicle: water 105 % of control

CSc1nc2[nH]c(=O)[nH]c(=O)c2[nH]1
inactive: dose: 50.0 mg/kg/injection, schedule: Q01DX005 (ip), vehicle: saline with Tween-80 95 % of control | dose: 100.0 mg/kg/injection, schedule: Q01DX005 (ip), vehicle: saline with Tween-80 94 % of control | dose: 200.0 mg/kg/injection, schedule: Q01DX005 (ip), vehicle: saline with Tween-80 108 % of control

Cc1cc2nc(C=C(C(F)(F)F)C(F)(F)F)oc2cc1C
inactive: dose: 1.56 mg/kg/injection, schedule: Q01DX009 (ip), vehicle: saline with Tween-80 98 % of control | dose: 3.13 mg/kg/injection, schedule: Q01DX009 (ip), vehicle: saline with Tween-80 98 % of control | dose: 6.25 mg/kg/injection, schedule: Q01DX009 (ip), vehicle: saline with Tween-80 95 % of control | dose: 12.5 mg/kg/injection, schedule: Q01DX009 (ip), vehicle: saline with Tween-80 93 % of control

O=C(Nc1ccc([N+](=O)[O-])cc1)c1c2ccccc2nc2ccccc12
inactive: dose: 50.0 mg/kg/injection, schedule: Q01DX005 (ip), vehicle: suspension in saline 92 % of control | dose: 100.0 mg/kg/injection, schedule: Q01DX005 (ip), vehicle: suspension in saline 100 % of control | dose: 200.0 mg/kg/injection, schedule: Q01DX005 (ip), vehicle: suspension in saline 104 % of control

C[C@]12CC(=O)[C@@H](C[C@H]1OC(=O)c1ccccc1)[C@@]21CO1
inactive: dose: 2.0 mg/kg/injection, schedule: Q04DX002 (ip), vehicle: distilled water + Tween-80 102 % of control | dose: 4.0 mg/kg/injection, schedule: Q04DX002 (ip), vehicle: distilled water + Tween-80 97 % of control | dose: 8.0 mg/kg/injection, schedule: Q04DX002 (ip), vehicle: distilled water + Tween-80 100 % of control | dose: 16.0 mg/kg/injection, schedule: Q04DX002 (ip), vehicle: distilled water + Tween-80 106 % of control | dose: 32.0 mg/kg/injection, schedule: Q04DX002 (ip), vehicle: distilled water + Tween-80 99 % of control

Cc1c(CN2CCOC(c3ccccc3)C2C)c(=O)n(-c2ccccc2)n1C (centres undefined)
inactive: dose: 50.0 mg/kg/injection, schedule: Q01DX009 (ip), vehicle: Klucel (hydroxypropylcellulose) (HPC) 93 % of control | dose: 100.0 mg/kg/injection, schedule: Q01DX009 (ip), vehicle: Klucel (hydroxypropylcellulose) (HPC) 103 % of control

Nc1nc(N)nc(NCCSSCCNc2nc(N)nc(N)n2)n1
inactive: dose: 12.5 mg/kg/injection, schedule: Q01DX009 (ip), vehicle: other 97 % of control | dose: 25.0 mg/kg/injection, schedule: Q01DX009 (ip), vehicle: other 102 % of control | dose: 50.0 mg/kg/injection, schedule: Q01DX009 (ip), vehicle: other 104 % of control and 86 % of control

Clc1ccc(OCCBr)cc1
inactive: dose: 50.0 mg/kg/injection, schedule: Q04DX003 (ip), vehicle: saline with Tween-80 105 % of control | [1] 101 % of control | [2] 105 % of control | [3] 99 % of control

CCOC(=O)Cn1cc([N+](=O)[O-])sc1=NC(=O)c1ccco1
inactive: dose: 100.0 mg/kg/injection, schedule: Q01DX001 (ip), vehicle: Klucel (hydroxypropylcellulose) (HPC) 90 % of control | dose: 200.0 mg/kg/injection, schedule: Q01DX001 (ip), vehicle: Klucel (hydroxypropylcellulose) (HPC) 98 % of control | dose: 400.0 mg/kg/injection, schedule: Q01DX001 (ip), vehicle: Klucel (hydroxypropylcellulose) (HPC) 97 % of control

CC(=O)Oc1ccc2[nH]c(C)cc2c1
inactive: [4] 100 % of control | dose: 200.0 mg/kg/injection, schedule: Q01DX001 (ip), vehicle: saline with Tween-80 98 % of control | dose: 400.0 mg/kg/injection, schedule: Q01DX001 (ip), vehicle: saline with Tween-80 93 % of control | dose: 800.0 mg/kg/injection, schedule: Q01DX001 (ip), vehicle: saline with Tween-80 103 % of control

CC(C)c1c(C[N+](C)([O-])C(C)Cc2ccccc2)n(C)n(-c2ccccc2)c1=O (centres undefined)
inactive: [5] 106 % of control | [6] 102 % of control | [7] 100 % of control

COCC(O)Cn1ccnc1N=Nc1ccccc1 (centres undefined)
inactive: [5] 103 % of control | [6] 102 % of control

CSc1ccc(C(C)=O)cc1
inactive: dose: 50.0 mg/kg/injection, schedule: Q01DX009 (ip), vehicle: saline + alcohol 100 % of control | dose: 100.0 mg/kg/injection, schedule: Q01DX009 (ip), vehicle: saline + alcohol 102 % of control | dose: 200.0 mg/kg/injection, schedule: Q01DX009 (ip), vehicle: saline + alcohol 100 % of control | dose: 400.0 mg/kg/injection, schedule: Q01DX009 (ip), vehicle: saline + alcohol 104 % of control

CCC(c1cccc(O)c1)C(CC)c1cccc(O)c1 (centres undefined)
inactive: dose: 50.0 mg/kg/injection, schedule: Q01DX005 (ip), vehicle: Klucel (hydroxypropylcellulose) (HPC) 102 % of control | dose: 100.0 mg/kg/injection, schedule: Q01DX005 (ip), vehicle: Klucel (hydroxypropylcellulose) (HPC) 102 % of control | dose: 200.0 mg/kg/injection, schedule: Q01DX005 (ip), vehicle: Klucel (hydroxypropylcellulose) (HPC) 103 % of control

Cc1cc(CCN)c(C)c2c1oc1ccccc12
inactive: dose: 25.0 mg/kg/injection, schedule: Q04DX003 (ip), vehicle: Klucel (hydroxypropylcellulose) (HPC) 103 % of control | dose: 50.0 mg/kg/injection, schedule: Q04DX003 (ip), vehicle: Klucel (hydroxypropylcellulose) (HPC) 99 % of control | dose: 100.0 mg/kg/injection, schedule: Q04DX003 (ip), vehicle: Klucel (hydroxypropylcellulose) (HPC) 100 % of control | dose: 200.0 mg/kg/injection, schedule: Q04DX003 (ip), vehicle: Klucel (hydroxypropylcellulose) (HPC) 105 % of control

C[n+]1[se]c2ccccc2c1Cl
inactive: dose: 3.12 mg/kg/injection, schedule: Q01DX009 (ip), vehicle: Klucel (hydroxypropylcellulose) (HPC) 105 % of control | dose: 6.25 mg/kg/injection, schedule: Q01DX009 (ip), vehicle: Klucel (hydroxypropylcellulose) (HPC) 99 % of control | dose: 12.5 mg/kg/injection, schedule: Q01DX009 (ip), vehicle: Klucel (hydroxypropylcellulose) (HPC) 99 % of control and 89 % of control

CS/C(Nc1ccccc1)=C1\CCCn2c1nc1ccccc1c2=O
inactive: dose: 25.0 mg/kg/injection, schedule: Q01DX001 (ip), vehicle: saline with Tween-80 105 % of control | dose: 50.0 mg/kg/injection, schedule: Q01DX001 (ip), vehicle: saline with Tween-80 99 % of control | [4] 90 % of control and 91 % of control

COCCc1nn[nH]n1
inactive: [8] 110 % of control | [9] 115 % of control | dose: 200.0 mg/kg/injection, schedule: Q01DX009 (ip), vehicle: saline 109 % of control

CC(O)C(=O)NCO (centres undefined)
inactive: dose: 50.0 mg/kg/injection, schedule: Q01DX005 (ip), vehicle: saline 104 % of control | dose: 100.0 mg/kg/injection, schedule: Q01DX005 (ip), vehicle: saline 100 % of control | dose: 200.0 mg/kg/injection, schedule: Q01DX005 (ip), vehicle: saline 100 % of control

CN1COc2ccc3ccccc3c2C1
inactive: dose: 25.0 mg/kg/injection, schedule: Q01DX009 (ip), vehicle: saline 101 % of control | [8] 98 % of control | [9] 106 % of control

Nc1nc(N)c(Cl)c(Nc2cccc(Cl)c2)n1
inactive: dose: 6.25 mg/kg/injection, schedule: Q01DX001 (ip), vehicle: saline with Tween-80 94 % of control

S=c1sc(-c2ccc(Cl)cc2)nn1CSc1nc2ccccc2[nH]1
inactive: [5] 100 % of control | [6] 98 % of control | [7] 89 % of control

Sc1ccccc1.[Ag]
inactive: dose: 25.0 mg/kg/injection, schedule: Q01DX009 (ip), vehicle: saline with Tween-80 97 % of control | dose: 50.0 mg/kg/injection, schedule: Q01DX009 (ip), vehicle: saline with Tween-80 105 % of control | dose: 100.0 mg/kg/injection, schedule: Q01DX009 (ip), vehicle: saline with Tween-80 96 % of control
